Data from patent US20100267561A1, “HERBICIDAL PYRIDAZINONE DERIVATIVES” (priority 2007, published 2010).

Columns and labels:
Experiment in all cases: Test A pre-/postemergence plant response
Type in all cases: in vivo
[1] = tested on: giant foxtail (Setaria faberi)
In short: (§1)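 Ratings run 0–100 (100 = complete control), assigned visually against untreated controls roughly 10 days after treatment in a greenhouse. Compounds, formulated in non-phytotoxic solvent containing surfactant, were applied as a soil-directed preemergence spray and concurrently postemergence to one- to two-leaf plants 2–10 cm tall.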

[2] = tested on: large crabgrass (Digitaria sanguinalis)
In short: as §1

[3] = tested on: velvetleaf (Abutilon theophrasti)
In short: as §1

[4] = Postemergence, 31 g ai/ha, 0 to 100 scale, 0 no effect, 100 complete control
[5] = Postemergence, 125 g ai/ha, 0 to 100 scale, 0 no effect, 100 complete control
[6] = Preemergence, 31 g ai/ha, 0 to 100 scale, 0 is no effect, 100 is complete control
[7] = Preemergence, 125 g ai/ha, 0 to 100 scale (0 no effect, 100 complete control)

Structure (SMILES) | Plant response rating, Foxtail, Giant [1, 4] | Plant response rating, Foxtail, Giant [1, 5] | Plant response rating, Foxtail, Giant [1, 6] | Plant response rating, Foxtail, Giant [1, 7] | Plant response rating, Crabgrass, Large [2, 4] | Plant response rating, Crabgrass, Large [2, 5] | Plant response rating, Crabgrass, Large [2, 6] | Plant response rating, Crabgrass, Large [2, 7] | Plant response rating, Velvetleaf [3, 4] | Plant response rating, Velvetleaf [3, 5] | Plant response rating, Velvetleaf [3, 6] | Plant response rating, Velvetleaf [3, 7]
Cc1cc(-c2ccc(Cl)cc2)nn1-c1c(OC(=O)c2ccccc2Cl)cnn(C)c1=O [Compound 38] | 80 | 90 | 90 | 100 | 40 | 100 | 90 | 100 | 0 | 0 | 0 | 0
Cn1ncc(O)c(-n2nc(-c3ccc(Cl)cc3)cc2C2CC2)c1=O [Compound 45] | 90 | 100 | 90 | 100 | 40 | 100 | 30 | 90 | 0 | 0 | 0 | 0
Cc1ccc(-c2ccc(Cl)cc2)cc1-c1c(O)cnn(C)c1=O [Compound 46] | 20 | 60 | 50 | 100 | 0 | 40 | 10 | 90 | 0 | 0 | 0 | 0
Cc1cc(-c2ccc(Cl)cc2)nn1-c1c(OS(=O)(=O)C(C)C)cnn(C)c1=O [Compound 50] | 0 | 60 | 70 | 90 | 0 | 40 | 50 | 90 | 0 | 0 | 0 | 0
CCCC(=O)Oc1cnn(C)c(=O)c1-n1nc(-c2ccc(Cl)cc2)cc1C [Compound 56] | 100 | 100 | 90 | 100 | 80 | 100 | 70 | 100 | 0 | 0 | 0 | 0
Cc1nn(C)c(=O)c(-n2nc(-c3ccc(Cl)cc3)cc2Cl)c1O [Compound 59] | 90 | 90 | 70 | 90 | 50 | 90 | 20 | 50 | 0 | 0 | 0 | 0
CCc1cc(-c2ccc(C(F)(F)F)cc2)nn1-c1c(O)c(OC)nn(C)c1=O [Compound 66] | 100 | 100 | 90 | 100 | 100 | 100 | 0 | 70 | 0 | 0 | 0 | 0
